Results taken from ChEMBL document CHEMBL1129258, “Synthesis and structure-activity relationships of 2-pyridones: a novel series of potent DNA gyrase inhibitors as antibacterial agents” (J Med Chem, 1996).
In brackets after ≈: the same amount, converted by molar mass.

Key:
[1] = system: Enterococcus faecium; assay: Inhibitory activity against enterococcus faecium Van A; format: functional
[2] = system: Enterococcus faecalis; assay: Inhibitory activity against enterococcus faecalis Van B; format: functional
[3] = molecular target: T1, DNA gyrase (Staphylococcus aureus) (UniProt P0A0K8+P20831); assay: In vitro antibacterial activity against gram-positive organism Staphylococcus aureus ATCC 6538p; format: functional
T1 sequence (P0A0K8 2-644 limits assumed): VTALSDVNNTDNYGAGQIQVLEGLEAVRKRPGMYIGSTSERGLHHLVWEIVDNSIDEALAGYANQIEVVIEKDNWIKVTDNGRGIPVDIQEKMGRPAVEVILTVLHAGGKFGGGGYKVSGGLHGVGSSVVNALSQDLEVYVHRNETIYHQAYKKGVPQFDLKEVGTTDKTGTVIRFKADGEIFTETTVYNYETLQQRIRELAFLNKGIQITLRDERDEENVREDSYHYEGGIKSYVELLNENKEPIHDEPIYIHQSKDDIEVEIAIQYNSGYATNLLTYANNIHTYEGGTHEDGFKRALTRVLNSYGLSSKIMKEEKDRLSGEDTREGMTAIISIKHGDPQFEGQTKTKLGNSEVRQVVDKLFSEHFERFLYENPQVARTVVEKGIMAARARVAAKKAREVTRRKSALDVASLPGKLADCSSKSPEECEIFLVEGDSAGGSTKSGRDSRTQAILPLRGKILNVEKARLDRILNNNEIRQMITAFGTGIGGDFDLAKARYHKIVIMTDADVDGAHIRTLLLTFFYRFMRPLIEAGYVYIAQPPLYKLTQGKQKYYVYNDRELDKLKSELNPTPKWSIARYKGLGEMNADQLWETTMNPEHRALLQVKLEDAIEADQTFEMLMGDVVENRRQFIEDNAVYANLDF
T1 sequence (P20831 whole entry partner): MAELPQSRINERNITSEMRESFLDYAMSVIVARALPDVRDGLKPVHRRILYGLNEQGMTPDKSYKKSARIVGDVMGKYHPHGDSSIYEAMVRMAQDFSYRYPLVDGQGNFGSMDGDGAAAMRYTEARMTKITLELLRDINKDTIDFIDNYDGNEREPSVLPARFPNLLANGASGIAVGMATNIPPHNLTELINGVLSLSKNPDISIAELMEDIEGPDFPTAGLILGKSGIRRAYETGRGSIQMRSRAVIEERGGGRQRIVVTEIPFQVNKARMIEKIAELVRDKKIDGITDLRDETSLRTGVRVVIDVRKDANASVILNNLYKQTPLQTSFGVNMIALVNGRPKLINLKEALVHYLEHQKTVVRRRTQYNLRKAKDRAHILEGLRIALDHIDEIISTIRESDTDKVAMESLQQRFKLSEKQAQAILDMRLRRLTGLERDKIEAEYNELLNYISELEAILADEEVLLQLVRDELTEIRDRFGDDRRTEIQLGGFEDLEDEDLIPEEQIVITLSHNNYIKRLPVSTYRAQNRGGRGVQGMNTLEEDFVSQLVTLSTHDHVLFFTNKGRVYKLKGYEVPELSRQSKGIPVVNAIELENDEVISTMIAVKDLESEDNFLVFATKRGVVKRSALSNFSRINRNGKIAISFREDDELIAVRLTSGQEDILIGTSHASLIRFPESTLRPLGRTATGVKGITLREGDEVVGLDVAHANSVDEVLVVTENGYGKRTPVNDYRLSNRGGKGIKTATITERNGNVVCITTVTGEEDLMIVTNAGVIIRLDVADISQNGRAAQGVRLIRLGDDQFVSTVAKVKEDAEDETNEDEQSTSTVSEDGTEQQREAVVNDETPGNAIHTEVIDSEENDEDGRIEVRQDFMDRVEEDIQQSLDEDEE

[4] = molecular target: T1, DNA gyrase (Staphylococcus aureus); assay: In vitro antibacterial activity against gram-positive organism Staphylococcus aureus 1775; format: functional
[5] = molecular target: T1, DNA gyrase (Staphylococcus aureus); assay: In vitro antibacterial activity against gram-positive organism Staphylococcus aureus NCTC-10649M; format: functional
[6] = molecular target: T2, DNA gyrase (Escherichia coli) (UniProt P0AES6+P0AES4); assay: In vitro antibacterial activity against gram-negative organism […] ATCC 13048; format: functional; settings: Enterobacter aerogenes
[7] = molecular target: T2, DNA gyrase (Escherichia coli); assay: In vitro antibacterial activity against gram-positive organism Streptococcus bovis A-5169; format: functional; settings: Streptococcus equinus
[8] = molecular target: T2, DNA gyrase (Escherichia coli); assay: In vitro antibacterial activity against gram-negative organism Klebsiella pneumoniae ATCC 8045; format: functional
[9] = molecular target: T2, DNA gyrase (Escherichia coli); assay: In vivo efficacy against Escherichia coli JUHL after oral administration; format: functional, organism-based; settings: Escherichia coli K-12
[10] = In vitro antibacterial activity against gram-negative organism Pseudomonas aeruginosa DPHD-2862; format: functional; settings: Pseudomonas aeruginosa; read-out: MIC
[11] = In vitro antibacterial activity against gram-negative organism Pseudomonas aeruginosa 5007; format: functional; settings: Pseudomonas aeruginosa; read-out: MIC
[12] = molecular target: T2, DNA gyrase (Escherichia coli); settings: Escherichia coli K-12
Description: Concentration which causes 50% of the gyrase (Escherichia coli H560)-mediated maximal DNA cleavage.

[13] = molecular target: T1, DNA gyrase (Staphylococcus aureus); assay: In vivo efficacy against Staphylococcus aureus NCTC-10649M after subcutaneous administration; format: functional, organism-based
[14] = In vivo efficacy against Pseudomonas aeruginosa 5007 after subcutaneous administration; format: functional; settings: Pseudomonas aeruginosa, sc; read-out: ED50
[15] = system: Streptococcus pneumoniae; assay: (§1) In vivo efficacy against Strep. administration; format: functional
[16] = system: Pseudomonas aeruginosa; assay: In vivo efficacy against Pseudomonas aeruginosa 5007 following p.o. administration.
[17] = system: Streptococcus pyogenes; assay: In vitro antibacterial activity against gram-positive organism Streptococcus pyogenes EES61; format: functional; settings: Streptococcus pyogenes; read-out: MIC
[18] = molecular target: T1, DNA gyrase (Staphylococcus aureus); assay: In vivo efficacy against Staphylococcus aureus NCTC-10649M after oral administration; format: functional, organism-based
[19] = molecular target: T2, DNA gyrase (Escherichia coli); assay: In vitro antibacterial activity against gram-negative organism Prov. stuartii CMX-640; format: functional; settings: Providencia stuartii
[20] = molecular target: T2, DNA gyrase (Escherichia coli); assay: In vitro antibacterial activity against gram-positive organism Enterococcus faecium ATCC 8043; format: functional
[21] = molecular target: T2, DNA gyrase (Escherichia coli); assay: In vivo efficacy against Escherichia coli JUHL by subcutaneous administration; format: functional, organism-based; settings: Escherichia coli K-12
[22] = system: Streptococcus pneumoniae; assay: In vivo efficacy against Strep. administered; format: functional
[23] = molecular target: T2, DNA gyrase (Escherichia coli); assay: In vitro antibacterial against gram-negative organism Escherichia coli JUHL; format: functional; settings: Escherichia coli K-12
[24] = system: Streptococcus pneumoniae; assay: as §1; format: functional; remark: listed apart in the source
[25] = Maximum plasma concentration in rats after an oral dose of 5 mg/kg; settings: rat
[26] = in vivo; settings: rat, po, 5 mg/kg
Description: Oral bioavailability in rat (dose 5 mg/kg)

[27] = in vivo; settings: rat, plasma, po, 5 mg/kg
[28] = physchem; settings: phosphate buffer, pH 7.4
Description: Aqueous solubility in pH 7.4 phosphate buffer (0.05 M) at 37 degree C

[29] = Streptococcus pneumoniae, read-out: ED50

SMILES	MIC [1] [µg/mL]	MIC [2] [µg/mL]	MIC [3] [µg/mL]	MIC [4] [µg/mL]	MIC [5] [µg/mL]	MIC [6] [µg/mL]	MIC [7] [µg/mL]	MIC [8] [µg/mL]	MIC [10] [µg/mL]	MIC [11] [µg/mL]	CC50 [12] [µg/mL]	ED50 [13] [mg/kg]	ED50 [14] [mg/kg]	ED50 [16] [mg/kg]	MIC [17] [µg/mL]	ED50 [18] [mg/kg]	MIC [19] [µg/mL]	MIC [20] [µg/mL]	ED50 [21] [mg/kg]	MIC [23] [µg/mL]	also measured
Cl.O=C(O)c1cn(C2CC2)c2cc(N3CCNCC3)c(F)cc2c1=O [CIPROFLOXACIN HYDROCHLORIDE]	4	1	0.2	> 100	0.39																
Cc1c(N2C[C@@H](C)N[C@@H](C)C2)c(F)cn2c(=O)c(C(=O)O)cc(C3CC3)c12			0.1 (≈ 0.268 µM)	6.2 (≈ 16.6 µM)	0.1 (≈ 0.268 µM)	0.1 (≈ 0.268 µM)	0.78 (≈ 2.09 µM)	0.02 (≈ 0.0536 µM)	12.5 (≈ 33.5 µM)	1.56 (≈ 4.18 µM)	1.8 (≈ 4.82 µM)	4.4	> 8	12.7	0.39 (≈ 1.04 µM)	4.8	3.1 (≈ 8.3 µM)	0.39 (≈ 1.04 µM)	1.3	0.02 (≈ 0.0536 µM)	ED50 [9]: 2.1 mg/kg; ED50 [15]: 49.4 mg/kg; ED50 [22]: > 8 mg/kg
Cc1c(N2CCC(N)C2)c(F)cn2c(=O)c(C(=O)O)cc(C3CC3)c12 (stereo not given)			0.01 (≈ 0.029 µM)	1.56 (≈ 4.52 µM)	0.01 (≈ 0.029 µM)	0.005 (≈ 0.0145 µM)	0.02 (≈ 0.0579 µM)	0.002 (≈ 0.00579 µM)	0.78 (≈ 2.26 µM)	0.05 (≈ 0.145 µM)	0.05 (≈ 0.145 µM)	1	0.5	4.6	0.02 (≈ 0.0579 µM)	4.1	0.2 (≈ 0.579 µM)	0.02 (≈ 0.0579 µM)	0.4	0.002 (≈ 0.00579 µM)	ED50 [9]: < 0.3 mg/kg; ED50 [24]: 6.2 mg/kg; ED50 [15, 29]: 12.5 mg/kg
Cc1c(N2CC[C@H](N)C2)c(F)cn2c(=O)c(C(=O)O)cc(C3CC3)c12 [ABT-719]	0.25 (≈ 0.724 µM)	0.03 (≈ 0.0869 µM)	0.01 (≈ 0.029 µM)	0.78 (≈ 2.26 µM)	0.01 (≈ 0.029 µM)	0.005 (≈ 0.0145 µM)	0.02 (≈ 0.0579 µM)	0.005 (≈ 0.0145 µM)	0.78 (≈ 2.26 µM)	0.05 (≈ 0.145 µM)	0.03 (≈ 0.0869 µM)	0.6	1.9	14.5	0.02 (≈ 0.0579 µM)	3.4	0.2 (≈ 0.579 µM)	0.02 (≈ 0.0579 µM)	0.1	0.002 (≈ 0.00579 µM)	ED50 [9]: 0.6 mg/kg; Cmax [25]: 270 ng/mL; ED50 [24]: 1.6 mg/kg; ED50 [15, 29]: 5.3 mg/kg; bioavailability [26]: 32%; half-life [27]: 1.2 h
Cc1c(N2C[C@H]3CCCN[C@H]3C2)c(F)cn2c(=O)c(C(=O)O)cc(C3CC3)c12 (single isomer, unassigned)			0.05 (≈ 0.13 µM)	0.78 (≈ 2.02 µM)	0.05 (≈ 0.13 µM)	0.05 (≈ 0.13 µM)	0.05 (≈ 0.13 µM)	0.005 (≈ 0.013 µM)	12.5 (≈ 32.4 µM)	0.78 (≈ 2.02 µM)		6.1	> 8	> 50	0.05 (≈ 0.13 µM)	29.3	1.56 (≈ 4.05 µM)	0.1 (≈ 0.259 µM)	> 1	0.05 (≈ 0.13 µM)	ED50 [15, 29]: 32.2 mg/kg; ED50 [22, 29]: > 8 mg/kg
Cc1c(N2CCC(CN)C2)c(F)cn2c(=O)c(C(=O)O)cc(C3CC3)c12 (stereo not given)	0.03 (≈ 0.0835 µM)	0.015 (≈ 0.0417 µM)	0.002 (≈ 0.00556 µM)	0.39 (≈ 1.09 µM)	0.002 (≈ 0.00556 µM)	0.01 (≈ 0.0278 µM)	0.002 (≈ 0.00556 µM)	0.005 (≈ 0.0139 µM)	1.56 (≈ 4.34 µM)	0.1 (≈ 0.278 µM)	0.05 (≈ 0.139 µM)				0.002 (≈ 0.00556 µM)		0.39 (≈ 1.09 µM)	0.01 (≈ 0.0278 µM)		0.005 (≈ 0.0139 µM)	
Cc1c(N2C[C@@H](N)C[C@@H]2C)c(F)cn2c(=O)c(C(=O)O)cc(C3CC3)c12			0.01 (≈ 0.0278 µM)	1.56 (≈ 4.34 µM)	0.01 (≈ 0.0278 µM)	0.05 (≈ 0.139 µM)	0.05 (≈ 0.139 µM)	0.01 (≈ 0.0278 µM)	3.1 (≈ 8.63 µM)	0.2 (≈ 0.556 µM)	0.2 (≈ 0.556 µM)				0.05 (≈ 0.139 µM)		0.78 (≈ 2.17 µM)	0.1 (≈ 0.278 µM)		0.005 (≈ 0.0139 µM)	Cmax [25]: 740 ng/mL; bioavailability [26]: 44%; solubility [28]: 70 µg/mL (≈ 195 µM); half-life [27]: 1.6 h
Cc1c(N2C[C@@H](N)[C@@H](C)C2)c(F)cn2c(=O)c(C(=O)O)cc(C3CC3)c12			0.02 (≈ 0.0556 µM)	0.78 (≈ 2.17 µM)	0.02 (≈ 0.0556 µM)	0.02 (≈ 0.0556 µM)	0.02 (≈ 0.0556 µM)	0.005 (≈ 0.0139 µM)	1.56 (≈ 4.34 µM)	0.1 (≈ 0.278 µM)	0.06 (≈ 0.167 µM)				0.05 (≈ 0.139 µM)		0.78 (≈ 2.17 µM)	0.05 (≈ 0.139 µM)		0.005 (≈ 0.0139 µM)	Cmax [25]: 170 ng/mL; bioavailability [26]: 23%; half-life [27]: 2.1 h
